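96-well plates; 48 h exposure; 5 concentrations. Endpoints by linear interpolation between flanking doses. Not reached: highest tested concentration assigned. TGI marks complete inhibition of growth.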
Legend:
Assay in all cases: NCI anticancer screen, dose series, 48 h
[1] = test system: NCI-H522 lung
[2] = test system: ACHN renal
[3] = test system: SN12C renal
[4] = test system: MCF7 breast
[5] = test system: 786-0 renal
[6] = test system: HCT-116 colon
[7] = test system: UACC-62 melanoma
[8] = test system: SK-MEL-2 melanoma
[9] = test system: SF-539 CNS
[10] = test system: M14 melanoma
[11] = test system: CAKI-1 renal
[12] = test system: COLO 205 colon
[13] = test system: SNB-19 CNS
[14] = test system: BT-549 breast
[15] = test system: MDA-MB-435
[16] = test system: OVCAR-8 ovarian
[17] = test system: MDA-N
[18] = test system: U251 CNS
[19] = test system: SK-MEL-28 melanoma
[20] = test system: A549 NSCLC
[21] = test system: HT29 colon
[22] = test system: K-562 leukemia
[23] = test system: OVCAR-4 ovarian
[24] = test system: HOP-62 NSCLC
[25] = test system: OVCAR-5 ovarian
[26] = test system: MALME-3M melanoma
[27] = test system: LOX IMVI melanoma
[28] = test system: UACC-257 melanoma
[29] = test system: T-47D breast
[30] = test system: A498 renal
[31] = test system: HL-60(TB) leukemia
[32] = test system: SK-MEL-5 melanoma
[33] = test system: EKVX NSCLC
[34] = test system: MOLT-4 leukemia
[35] = test system: DU-145 prostate
[36] = test system: SF-295 CNS
[37] = test system: SF-268 CNS
[38] = test system: CCRF-CEM leukemia
[39] = test system: TK-10 renal
[40] = test system: UO-31 renal
[41] = test system: IGROV1 ovarian
[42] = test system: NCI/ADR-RES ovarian
[43] = test system: HOP-92 NSCLC
[44] = test system: SW-620 colon
[45] = test system: RXF 393 renal
[46] = test system: RPMI-8226 leukemia
[47] = test system: NCI-H23 lung
[48] = test system: KM12 colon
[49] = test system: NCI-H226 lung
[50] = test system: HCT-15 colon
[51] = test system: OVCAR-3 ovarian
[52] = test system: PC-3 prostate
[53] = test system: MDA-MB-231 breast
[54] = test system: HS 578T breast
[55] = test system: SK-OV-3 ovarian
[56] = test system: SNB-75 CNS

Measured: TGI

O=C1CCC(=O)N1CNc1ccc2c(c1)S(=O)(=O)c1ccccc1O2
not listed: [55] | [56]
> 100 µM: all other assays above

O=S(=O)(O)c1cc(S(=O)(=O)O)c2cc(N=Nc3c(O)ccc4ccccc34)ccc2c1
not listed: [4] | [9] | [30]
> 100 µM: all other assays above
